# Measurements taken from paper PMC7933930, “Development of a small molecule that corrects misfolding and increases secretion of Z α1‐antitrypsin” (EMBO Molecular Medicine, 2021).
# Experiments:
# Type in all cases: cell-based
# [1] = system: Z α1‐antitrypsin polymers in CHO cells; assay: Soluble and insoluble polymers in CHO cells expressing Z α1‐antitrypsin (NP‐40 fractions, 2C1 immunoprecipitation, immunoblot); details: pre‐treatment 48 h with 10 μM GSK716, CHO cells induced with doxycycline
# Experimental: Figure 2 GSK716 inhibits polymerisation of Z α1‐antitrypsin in cell models of disease • A GSK716 was added to CHO‐TET‐ON‐Z‐A1AT cells (Ordóñez et al, 2013) with simultaneous induction of Z α1‐antitrypsin expression using doxycycline, and polymer load was quantified with the 2C1 monoclonal antibody that is specific to pathological polymers of α1‐antitrypsin (Miranda et al, 2010). […] Data were normalised to vehicle and a control compound from the GSK716 series at saturating concentration. […] It induced an approximately threefold increase in secreted levels of Z α1‐antitrypsin compared with vehicle control. This was apparent even after polymers had been allowed to form. Scale bar: 100 µm. Data presented as mean ± SD, n = 8 (secretion) and n = 6 (polymer inhibition). • E CHO tetracycline‐inducible cells expressing Z α1‐antitrypsin were induced with 0.5 μg/ml doxycycline for 48 h and treated with 10 μM GSK716. […] For every time point, NP‐40‐soluble and NP‐40‐insoluble fractions were separated and immunoprecipitated with the 2C1 mAb and resolved by 4–12% w/v SDS–PAGE and α1‐antitrypsin detected by immunoblotting. […] Cell viability was measured by Cell Counting Kit‐8. […] Samples were resolved by 4–12% w/v acrylamide SDS–PAGE and detected by autoradiography. • H The graphs show the effect of GSK716 on intracellular and extracellular Z α1‐antitrypsin (mean ± SEM, n = 2). […]
# Serotonin 5HT2A = Serotonin 5HT2A (Homo sapiens, UniProt P28223); assay: Off‐target panel: Serotonin 5HT2A (DRX)
# Sequence of Serotonin 5HT2A (P28223 whole entry): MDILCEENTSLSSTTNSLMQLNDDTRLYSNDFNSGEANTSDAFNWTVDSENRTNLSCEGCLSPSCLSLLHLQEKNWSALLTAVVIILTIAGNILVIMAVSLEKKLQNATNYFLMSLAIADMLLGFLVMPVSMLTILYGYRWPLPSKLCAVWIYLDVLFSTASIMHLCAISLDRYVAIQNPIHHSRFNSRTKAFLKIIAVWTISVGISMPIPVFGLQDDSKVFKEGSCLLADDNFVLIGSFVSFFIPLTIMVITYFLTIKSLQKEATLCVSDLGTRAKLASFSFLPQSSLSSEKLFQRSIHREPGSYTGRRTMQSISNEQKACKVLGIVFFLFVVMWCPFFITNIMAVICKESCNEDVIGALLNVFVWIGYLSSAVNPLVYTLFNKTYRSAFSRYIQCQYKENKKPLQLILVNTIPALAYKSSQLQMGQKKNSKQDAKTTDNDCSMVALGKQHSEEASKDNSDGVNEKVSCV
# Experimental: (§1) GSK716 selectivity and PK properties were profiled in order to investigate the suitability of GSK716 for progression into in vivo studies and the potential for taking it forward as a clinical candidate for testing in humans. Since GSK716 results in loss of inhibitory activity of α1‐antitrypsin, the effect of the compound was assessed on other closely related serpins. […] Furthermore, there were no off‐target effects in a panel of assays considered predictive of known safety liabilities that precluded further development of GSK716 (Table EV1).
# [2] = system: Z α1‐antitrypsin polymers in CHO‐TET‐ON‐Z‐A1AT cells; assay: Intracellular Z α1‐antitrypsin polymer formation in CHO‐TET‐ON‐Z‐A1AT cells (2C1 staining)
# Experimental: The ability of GSK716 to block Z α1‐antitrypsin polymerisation in the ER during folding was assessed by adding GSK716 to CHO‐TET‐ON‐Z‐A1AT cells (Ordóñez et al, 2013) with simultaneous induction of Z α1‐antitrypsin expression using doxycycline. […] Similar potency between the effects on secretion and polymerisation was observed throughout members of the lead series supporting the hypothesis that these effects are caused by the same pharmacological mode of action.
# Figure 2 GSK716 inhibits polymerisation of Z α1‐antitrypsin in cell models of disease • A GSK716 was added to CHO‐TET‐ON‐Z‐A1AT cells (Ordóñez et al, 2013) with simultaneous induction of Z α1‐antitrypsin expression using doxycycline, and polymer load was quantified with the 2C1 monoclonal antibody that is specific to pathological polymers of α1‐antitrypsin (Miranda et al, 2010). […] For every time point, NP‐40‐soluble and NP‐40‐insoluble fractions were separated and immunoprecipitated with the 2C1 mAb and resolved by 4–12% w/v SDS–PAGE and α1‐antitrypsin detected by immunoblotting. […] Cell viability was measured by Cell Counting Kit‐8. […] Samples were resolved by 4–12% w/v acrylamide SDS–PAGE and detected by autoradiography. • H The graphs show the effect of GSK716 on intracellular and extracellular Z α1‐antitrypsin (mean ± SEM, n = 2). […]
# Serotonin 5HT2B = Serotonin 5HT2B (Homo sapiens, UniProt P41595); assay: Off‐target panel: Serotonin 5HT2B (DRX)
# Sequence of Serotonin 5HT2B (P41595 whole entry): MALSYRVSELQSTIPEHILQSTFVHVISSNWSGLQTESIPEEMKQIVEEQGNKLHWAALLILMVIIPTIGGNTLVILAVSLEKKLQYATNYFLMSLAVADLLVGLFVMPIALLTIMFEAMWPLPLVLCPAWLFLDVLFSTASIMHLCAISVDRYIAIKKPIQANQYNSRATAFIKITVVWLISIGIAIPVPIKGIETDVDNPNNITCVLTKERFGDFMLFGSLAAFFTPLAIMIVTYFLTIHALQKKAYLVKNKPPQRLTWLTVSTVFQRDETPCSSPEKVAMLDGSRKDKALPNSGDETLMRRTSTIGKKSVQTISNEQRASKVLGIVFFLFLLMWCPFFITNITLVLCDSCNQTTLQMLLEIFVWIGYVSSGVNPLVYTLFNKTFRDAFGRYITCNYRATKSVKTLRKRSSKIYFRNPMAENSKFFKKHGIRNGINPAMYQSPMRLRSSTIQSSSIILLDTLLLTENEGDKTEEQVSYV
# Experimental: as §1
smiles,measurement,setting,value
CCC[C@@H](NC(=O)c1cccc2c1CC(=O)N2)[C@@H](O)c1cccc(F)c1C [GSK716],formation of soluble and insoluble polymers,[1],significantly reduced
same,EC50,Serotonin 5HT2A,> 100 µM
same,IC50,Serotonin 5HT2A,63.1 µM
same,intracellular formation of Z α1‐antitrypsin polymers in comparison with controls,[2],completely blocked
same,IC50,"[2]; doxycycline induction, n = 71, read-out: mean pIC50, intracellular formation of Z α1‐antitrypsin polymers (converted)",0.501 µM
same,EC50,Serotonin 5HT2B,39.8 µM
